Tests used:
[1] = Stability of GTG in buffers, UPLC-MS MRM analysis; format: physicochemical; conditions: for stability: up to 48 h
Protocol: All chromatographic analyses were carried out in a Waters Acquity UPLC system connected to a Sciex 4500 QTrap (Redwood City, Calif.). Mass spectrometric analyses were carried out in the multiple reaction monitoring (MRM) mode. Chromatographic separations were carried out in an ACQUITY BEH C18 peptide column (100*2.1 mm, 1.7 μm; Waters) connected to a guard column using a flow rate of 0.5 ml/min. Water (solvent A) and acetonitrile (solvent B) were used as eluents. To both solvents, 0.1% heptafluorobutyric acid (v/v) was added. Analyses were performed at a column temperature of 40° C. using gradient elution: 5% B (0-0.25 min) to 20% B (2 min) to 50% B (3 min) to 100% B (3.5-5 min). The column was equilibrated at 5% B for 1 min prior to the next analysis. Detection of the analytes was achieved by using full scan mode for the identification of metabolites in preparative HPLC fraction and multiple reaction monitoring for the quantitation in stability experiments. The ion source was run under the following conditions: temperature, 550° C.; ion spray voltage, 4.5 kV; curtain gas, 45 ml/min; nebulizer gas, 60 ml/min; heating gas, 60 ml/min.
To test the stability, GTG was incubated under various conditions. The following buffers were used: 0.1 M phosphate buffer pH 5, 0.1 M phosphate buffer pH 7, 0.1 M phosphate buffer pH 9 and 0.1% formic acid. 10 μM solutions of […] in each buffer were stored at 4° C., 25° C. or 37° C. for up to 48 h, respectively. Sample aliquots were directly injected to ULPC-MS for MRM analysis. For the identification of degradation products sample aliquots were analyzed using full scan mode.

αB-Crystallin = αB-Crystallin incubated with methylglyoxal with or without GTG: covalent crosslinking and AGE levels; format: biochemical; conditions: 250 μM GTG + 250 μM MGO
Protocol: Legend: 1. αB-crystallin control, 2. αB-crystallin+250 μM GTG, 3. αB-crystallin+250 μM MGO, 4. αB-crystallin+250 μM GTG+250 μM MGO. The bar graphs are means±SD of triplicate measurements. ***p<0.0005. […] Lanes: 1. MW marker, 2. αB-crystallin standard, 3. αB-crystallin blank, 4. αB-crystallin+250 μM GTG, 5. αB-crystallin+250 μM MGO, 5. αB-crystallin+250 μM GTG and 250 μM MGO.
To test the efficacy of GTG in the inhibition of AGE production, αB-Crystallin was incubated with methylglyoxal in the presence or absence of GTG and analyzed for covalent crosslinking and AGE levels.

diabetic mice = test: AGE levels in lenses and retinas of STZ-diabetic mice by UPLC-MS/MS; format: in vivo; conditions: 1 nmole/g body weight i.p. once every two days, 8 weeks; vs untreated diabetic controls
Protocol: The bar graphs are the means±SD of at least 8 measurements. *p<0.05, **p<0.005.
GTG was also tested in diabetic mice. Diabetes was induced by repeated STZ injections. GTG (1 nmole/g body weight) was injected intraperitoneally once every two days. After 8 weeks, lenses and retinas were harvested and analyzed for AGE levels by UPLC-MS/MS.

Mouse lenses = test: Mouse lens stiffness (axial and equatorial strain under load); conditions: 1.5 mM GTG, 48 h, 37° C.; load of 2,700 mg
Protocol: Mouse lenses (6 months old) were incubated with 1.5 mM GTG for 48 h at 37° C. in serum free MEM in a CO2 incubator. Lens stiffness was measured using a set up as described previously (Cheng C, et al., Journal of visualized experiments: JoVE. 2016, (111):10.3791/ 53986). Lens stiffness was measured using a load of 2,700 mg. Axial and equatorial strains were calculated as previously described (Chen, JOVE 2016, supra).

[2] = test system: human lens cells (FHL 124); test: FHL 124 cells: levels of GTG metabolites and α-dicarbonyls; format: cell-based
Protocol: FIG. 6A depicts the scheme of dehydroascorbate (DHA) degradation and formation of reactive α-dicarbonyls and AGEs. […] The bar graphs are means±SD of triplicate measurements. **p<0.005, ***p<0.0005.
Next, human lens cells (FHL 124) were incubated with dehydroascorbic acid in the presence or absence of GTG and analyzed for levels of GTG and its metabolites as well as α-dicarbonyls. […] FHL124 cells were pretreated with GTG before either DHA or MGO was added.

Compound: CCOC(=O)CNC(=O)C(CSSCCNC(=N)N)NC(=O)CCC(N)C(=O)OCC (stereo not shown) [GTG, glutathione diethyl ester thioethylguanidine disulfide]
- stability ([1]; 0.1% formic acid, 10 μM, 4° C., 25° C. or 37° C.): stable at all temperatures
- stability ([1]; 0.1 M phosphate buffer pH 5, 4° C.): stable
- stability ([1]; 0.1 M phosphate buffer pH 5, 25° C.): stable
- stability ([1]; 0.1 M phosphate buffer pH 5, 37° C.): slightly degraded
- stability ([1]; 0.1 M phosphate buffer pH 7, 4° C., 25° C. or 37° C.): degraded at all temperatures
- stability ([1]; 0.1 M phosphate buffer pH 9, 4° C., 25° C. or 37° C.): degraded at all temperatures
- reduction of the disulfide bond during the incubation ([1]; all buffer and temperature conditions of the stability test): not observed
- covalent crosslinking in αB-crystallin incubated with methylglyoxal (αB-Crystallin; SDS-PAGE): significantly reduced
- AGE formation (CEL levels) in αB-crystallin incubated with methylglyoxal (αB-Crystallin; after acid hydrolysis): significantly reduced
- AGE levels in the lens (diabetic mice): lower
- AGE levels in the retina (diabetic mice): lower
- improvement of axial strain in comparison to control lenses (Mouse lenses): 23%
- improvement of equatorial strain in comparison to control lenses (Mouse lenses): 72%
- penetration of the plasma membrane of FHL124 cells ([2]; 50 mM GTG for 2 h): able to penetrate the plasma membrane
- intracellular conversion to glutathione and mercaptoethylguanidine ([2]; 50 mM GTG for 2 h, FHL124 cells): immediately reduced and hydrolyzed to glutathione and mercaptoethylguanidine
- reactive α-dicarbonyls derived from dehydroascorbic acid ([2]; cells treated 24 h with dehydroascorbic acid, subsequent incubation with GTG): significant reduction

— patent publication US20200247846A1, “INHIBITION OF OXIDATIVE STRESS, GLYCATION, AND PROTEIN CROSSLINKING” (THE REGENTS OF THE UNIVERSITY OF COLORADO, A BODY CORPORATE, priority 2017, published 2020)
